ChEMBL document CHEMBL1201862, “PubChem BioAssay data set” (2004)
Where a name gives a salt, the structure may show the parent alone. The source made the active and inactive calls.

What was measured:
[1] = Luminescence Cell-Based Dose Response HTS to Identify Inhibitors of 5'UTR Stem-Loop Driven Prion Protein mRNA Translation in H4 Neuroglioblastoma Cells. [Related pubchem assays: 1827 (Project Summary), 1813 (Primary HTS)]; format: functional
[2] = inhibitors of firefly luciferase expression or activity, dose response, H4 neuroglioma cells, luminescence (AID 1990); format: functional, cell-based
[3] = target: DNA repair protein RAD52 homolog (Homo sapiens, UniProt P43351); format: functional, biochemical
DNA repair protein RAD52 homolog, sequence (P43351 whole entry): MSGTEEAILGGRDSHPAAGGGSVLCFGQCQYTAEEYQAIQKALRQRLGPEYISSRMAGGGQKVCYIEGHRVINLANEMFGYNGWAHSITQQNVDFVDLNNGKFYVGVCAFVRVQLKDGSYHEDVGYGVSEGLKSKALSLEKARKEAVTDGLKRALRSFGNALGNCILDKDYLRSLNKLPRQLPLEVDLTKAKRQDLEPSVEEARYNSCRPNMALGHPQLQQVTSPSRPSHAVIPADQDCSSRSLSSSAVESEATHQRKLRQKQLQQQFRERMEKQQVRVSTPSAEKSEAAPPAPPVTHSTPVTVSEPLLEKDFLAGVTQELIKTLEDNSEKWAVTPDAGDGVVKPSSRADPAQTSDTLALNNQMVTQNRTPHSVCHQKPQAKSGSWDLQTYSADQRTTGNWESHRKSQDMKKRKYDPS

HEK293 [4] = assay: cells; conditions: Homo sapiens
[5] = HepG2 cell cytotoxicity, dose response, cytotoxicity control, ATP luminescence, cherry-pick, set 6 (AID 1053125); format: functional, cell-based
cells [6] = assay: cells
[7] = Counterscreen for activators of the function of SWI/SNF related, matrix associated, actin dependent regulator of chromatin, subfamily a, member 2 (SMARCA2, BRM): Luminescence-based cell-based high throughput dose response assay to identify non-selective compounds using the VP16 reporter assay.; format: functional
HEK293 [8] = assay: cells; conditions: Homo sapiens; remark: listed apart in the source
cells [9] = conditions: A549
cells [10] = conditions: HEK293
[11] = target: SWI/SNF-related matrix-associated actin-dependent regulator of chromatin subfamily A member 2 (Homo sapiens, UniProt P51531); assay: Luminescence-based cell-based high throughput dose response assay to identify activators of the function of SWI/SNF related, matrix associated, actin dependent regulator of chromatin, subfamily a, member 2 (SMARCA2, BRM).; format: functional
SWI/SNF-related matrix-associated actin-dependent regulator of chromatin subfamily A member 2, sequence (P51531 whole entry): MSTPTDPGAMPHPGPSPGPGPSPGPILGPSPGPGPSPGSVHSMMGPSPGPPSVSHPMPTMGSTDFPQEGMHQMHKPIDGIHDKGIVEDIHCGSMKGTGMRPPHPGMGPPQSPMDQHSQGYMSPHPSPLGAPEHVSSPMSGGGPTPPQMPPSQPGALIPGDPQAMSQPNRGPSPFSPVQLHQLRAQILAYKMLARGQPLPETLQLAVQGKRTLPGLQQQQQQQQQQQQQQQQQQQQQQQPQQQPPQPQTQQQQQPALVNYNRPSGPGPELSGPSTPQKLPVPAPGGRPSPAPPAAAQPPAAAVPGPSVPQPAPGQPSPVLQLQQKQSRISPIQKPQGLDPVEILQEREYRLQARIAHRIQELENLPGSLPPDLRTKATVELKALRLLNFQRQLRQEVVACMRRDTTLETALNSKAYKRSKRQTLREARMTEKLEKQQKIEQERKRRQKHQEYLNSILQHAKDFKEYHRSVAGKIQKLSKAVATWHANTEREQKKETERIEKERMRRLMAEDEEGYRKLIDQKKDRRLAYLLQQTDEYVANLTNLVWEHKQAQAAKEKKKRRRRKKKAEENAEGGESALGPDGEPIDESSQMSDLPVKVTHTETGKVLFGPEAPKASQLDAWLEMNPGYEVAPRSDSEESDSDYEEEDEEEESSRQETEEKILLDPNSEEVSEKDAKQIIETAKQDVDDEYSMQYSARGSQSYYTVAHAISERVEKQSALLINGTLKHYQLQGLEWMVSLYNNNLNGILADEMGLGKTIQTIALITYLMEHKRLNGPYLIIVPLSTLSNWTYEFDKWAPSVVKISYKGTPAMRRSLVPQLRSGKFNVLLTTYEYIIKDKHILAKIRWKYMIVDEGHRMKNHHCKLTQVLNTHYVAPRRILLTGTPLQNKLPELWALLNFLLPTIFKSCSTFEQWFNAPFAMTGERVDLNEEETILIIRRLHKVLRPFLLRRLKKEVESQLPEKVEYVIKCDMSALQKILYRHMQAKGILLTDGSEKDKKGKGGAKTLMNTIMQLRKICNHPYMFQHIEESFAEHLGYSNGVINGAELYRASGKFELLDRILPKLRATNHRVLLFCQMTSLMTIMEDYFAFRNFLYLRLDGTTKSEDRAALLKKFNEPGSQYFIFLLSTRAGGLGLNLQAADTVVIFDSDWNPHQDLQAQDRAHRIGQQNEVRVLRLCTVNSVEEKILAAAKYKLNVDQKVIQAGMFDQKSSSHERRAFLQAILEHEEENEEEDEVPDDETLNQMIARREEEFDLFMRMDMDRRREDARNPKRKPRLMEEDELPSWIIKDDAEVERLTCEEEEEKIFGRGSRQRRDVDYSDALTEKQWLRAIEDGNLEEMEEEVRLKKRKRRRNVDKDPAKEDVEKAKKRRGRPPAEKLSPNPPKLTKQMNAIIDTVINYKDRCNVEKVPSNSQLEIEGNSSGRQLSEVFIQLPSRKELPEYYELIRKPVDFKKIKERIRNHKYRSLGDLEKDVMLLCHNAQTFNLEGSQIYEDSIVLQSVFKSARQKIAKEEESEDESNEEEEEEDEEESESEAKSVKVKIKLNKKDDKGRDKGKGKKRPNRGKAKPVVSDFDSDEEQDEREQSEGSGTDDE

[12] = target: T1, DNA repair and recombination protein RAD54-like (Homo sapiens, UniProt Q92698); assay: inhibitors of human RAD54 branch migration, confirmation, biochemical, fluorescence, cherry-picked samples, dose series (AID 651657); format: functional
T1 sequence (Q92698 whole entry): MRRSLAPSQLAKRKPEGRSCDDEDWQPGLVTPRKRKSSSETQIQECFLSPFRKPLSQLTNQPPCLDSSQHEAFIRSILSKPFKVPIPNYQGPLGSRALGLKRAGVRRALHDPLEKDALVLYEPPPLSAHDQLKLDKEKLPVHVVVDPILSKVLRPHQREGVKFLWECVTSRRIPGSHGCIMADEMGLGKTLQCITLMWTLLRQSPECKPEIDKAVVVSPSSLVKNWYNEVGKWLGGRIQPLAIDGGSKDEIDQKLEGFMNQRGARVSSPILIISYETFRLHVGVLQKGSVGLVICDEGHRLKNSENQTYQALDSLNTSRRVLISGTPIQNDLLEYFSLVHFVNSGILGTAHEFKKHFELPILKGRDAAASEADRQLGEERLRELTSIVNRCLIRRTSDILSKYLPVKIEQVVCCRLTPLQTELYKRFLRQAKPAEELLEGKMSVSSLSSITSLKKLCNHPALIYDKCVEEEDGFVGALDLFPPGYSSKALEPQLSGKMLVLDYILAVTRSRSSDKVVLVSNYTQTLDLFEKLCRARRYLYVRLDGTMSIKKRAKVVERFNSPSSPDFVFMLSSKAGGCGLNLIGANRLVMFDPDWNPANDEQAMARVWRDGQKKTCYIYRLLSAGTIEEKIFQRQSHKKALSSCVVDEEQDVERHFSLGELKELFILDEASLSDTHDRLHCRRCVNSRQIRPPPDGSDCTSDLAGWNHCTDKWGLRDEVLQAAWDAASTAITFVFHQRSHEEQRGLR

[13] = target: Glutathione-S-transferase (Schistosoma japonicum, UniProt Q26513); assay: biotin-GST/anti-GST TR-FRET signal inhibitors, dose response, artefact control for Vif-APOBEC3G degradation inhibitor project, biochemical (AID 1117362); format: functional
Glutathione-S-transferase, sequence (Q26513 whole entry): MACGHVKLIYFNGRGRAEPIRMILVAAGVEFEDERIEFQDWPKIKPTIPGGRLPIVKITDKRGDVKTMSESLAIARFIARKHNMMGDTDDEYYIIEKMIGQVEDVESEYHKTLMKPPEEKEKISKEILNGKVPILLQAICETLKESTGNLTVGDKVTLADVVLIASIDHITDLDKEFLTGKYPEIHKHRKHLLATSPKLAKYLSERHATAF

Protein skinhead-1 = target: T2, Protein skinhead-1 (Caenorhabditis elegans, UniProt P34707); format: functional
T2 sequence (P34707 whole entry): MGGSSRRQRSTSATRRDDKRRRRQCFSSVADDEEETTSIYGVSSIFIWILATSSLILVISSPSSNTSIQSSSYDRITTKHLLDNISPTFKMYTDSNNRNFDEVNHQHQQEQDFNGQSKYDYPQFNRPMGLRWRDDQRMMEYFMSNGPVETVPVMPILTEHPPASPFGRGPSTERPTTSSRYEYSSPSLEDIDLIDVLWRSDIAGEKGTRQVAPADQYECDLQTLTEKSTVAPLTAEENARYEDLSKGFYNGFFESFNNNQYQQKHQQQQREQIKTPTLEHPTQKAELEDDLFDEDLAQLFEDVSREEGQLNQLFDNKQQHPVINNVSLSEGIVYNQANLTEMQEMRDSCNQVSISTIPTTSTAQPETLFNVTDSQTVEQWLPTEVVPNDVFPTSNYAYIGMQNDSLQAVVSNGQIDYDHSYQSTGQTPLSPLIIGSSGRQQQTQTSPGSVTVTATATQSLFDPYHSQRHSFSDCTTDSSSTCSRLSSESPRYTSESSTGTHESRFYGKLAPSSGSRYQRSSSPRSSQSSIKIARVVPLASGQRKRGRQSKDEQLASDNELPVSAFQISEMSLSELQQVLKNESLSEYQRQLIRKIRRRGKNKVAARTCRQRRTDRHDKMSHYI

cells [14] = assay: cells; remark: listed apart in the source
[15] = target: T3, Oxysterols receptor LXR-beta (Homo sapiens, UniProt P55055); format: functional, cell-based;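 note: Cell-based luminescence dose-response assay of agonist activity at LXR, run as a confirmatory counterscreen to a daf-12 agonist screen; HEK293 cells with Gal4-LXR fusion and GAL4-driven luciferase reporter; agonist potency from rising luciferase signal of a Gal4-LXR reporter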
T3 sequence (P55055 whole entry): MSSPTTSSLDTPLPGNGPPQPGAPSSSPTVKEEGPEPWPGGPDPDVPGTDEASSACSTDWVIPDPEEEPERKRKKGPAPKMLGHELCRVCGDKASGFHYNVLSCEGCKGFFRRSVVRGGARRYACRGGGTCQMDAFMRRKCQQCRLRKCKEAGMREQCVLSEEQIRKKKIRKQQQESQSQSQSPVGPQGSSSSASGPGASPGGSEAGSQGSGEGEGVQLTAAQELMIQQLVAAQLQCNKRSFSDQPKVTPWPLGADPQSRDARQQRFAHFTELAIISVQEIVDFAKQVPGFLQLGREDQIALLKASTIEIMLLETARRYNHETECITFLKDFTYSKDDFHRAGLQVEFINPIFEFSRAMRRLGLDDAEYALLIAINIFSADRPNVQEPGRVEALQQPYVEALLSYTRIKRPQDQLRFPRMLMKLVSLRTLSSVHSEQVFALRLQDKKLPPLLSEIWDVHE

[16] = Jurkat T cell cytotoxicity, dose response, cytotoxicity control for P. falciparum gametocyte viability project, luminescence (AID 1117277); format: functional, cell-based;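 note: potency reflects loss of cellular ATP meaning fewer viable cells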
[17] = P. falciparum late gametocyte killing, dose response, luminescence (AID 1117278); format: functional, cell-based;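 note: gametocytes exposed to compound for 24 hours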
[18] = Late stage results for the probe development effort to identify inhibitors of Plasmodium falciparum gametocytes: Luminescence-based cell-based high throughput dose response assay to identify inhibitors of viability of late stage Plasmodium falciparum gametocytes.; format: functional
[19] = inhibitors of LMP1-driven NF-kB reporter, dose response, cell-based, EBV LMP1, luciferase, dry powder, set 2 (AID 624361); format: functional
[20] = target: NAD-dependent protein deacylase sirtuin-5, mitochondrial (Homo sapiens, UniProt Q9NXA8); assay: SIRT5 deacylase inhibitors, dose response, biochemical, fluorescence imaging, cherry-pick, set 6 (AID 720597)
NAD-dependent protein deacylase sirtuin-5, mitochondrial, sequence (Q9NXA8 whole entry, the tested form may be a part): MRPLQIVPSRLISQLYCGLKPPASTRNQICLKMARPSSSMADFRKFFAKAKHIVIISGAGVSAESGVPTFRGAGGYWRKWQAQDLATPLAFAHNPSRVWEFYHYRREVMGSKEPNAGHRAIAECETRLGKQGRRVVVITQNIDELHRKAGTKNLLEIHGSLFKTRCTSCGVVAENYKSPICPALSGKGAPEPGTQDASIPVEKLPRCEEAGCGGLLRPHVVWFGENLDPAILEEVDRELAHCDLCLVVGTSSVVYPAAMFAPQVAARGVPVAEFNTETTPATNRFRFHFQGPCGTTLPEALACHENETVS

[21] = target: E3 ubiquitin-protein ligase UHRF1 (Homo sapiens, UniProt Q96T88); assay: Counterscreen for inhibitors of 5-meCpG-binding domain protein 2 (MBD2): TRFRET-based biochemical high throughput dose response assay to identify inhibitors of binding of ubiquitin-like with PHD and ring finger domains 1 (UHRF1) to methylated oligonucleotide.
E3 ubiquitin-protein ligase UHRF1, sequence (Q96T88 whole entry, the tested form may be a part): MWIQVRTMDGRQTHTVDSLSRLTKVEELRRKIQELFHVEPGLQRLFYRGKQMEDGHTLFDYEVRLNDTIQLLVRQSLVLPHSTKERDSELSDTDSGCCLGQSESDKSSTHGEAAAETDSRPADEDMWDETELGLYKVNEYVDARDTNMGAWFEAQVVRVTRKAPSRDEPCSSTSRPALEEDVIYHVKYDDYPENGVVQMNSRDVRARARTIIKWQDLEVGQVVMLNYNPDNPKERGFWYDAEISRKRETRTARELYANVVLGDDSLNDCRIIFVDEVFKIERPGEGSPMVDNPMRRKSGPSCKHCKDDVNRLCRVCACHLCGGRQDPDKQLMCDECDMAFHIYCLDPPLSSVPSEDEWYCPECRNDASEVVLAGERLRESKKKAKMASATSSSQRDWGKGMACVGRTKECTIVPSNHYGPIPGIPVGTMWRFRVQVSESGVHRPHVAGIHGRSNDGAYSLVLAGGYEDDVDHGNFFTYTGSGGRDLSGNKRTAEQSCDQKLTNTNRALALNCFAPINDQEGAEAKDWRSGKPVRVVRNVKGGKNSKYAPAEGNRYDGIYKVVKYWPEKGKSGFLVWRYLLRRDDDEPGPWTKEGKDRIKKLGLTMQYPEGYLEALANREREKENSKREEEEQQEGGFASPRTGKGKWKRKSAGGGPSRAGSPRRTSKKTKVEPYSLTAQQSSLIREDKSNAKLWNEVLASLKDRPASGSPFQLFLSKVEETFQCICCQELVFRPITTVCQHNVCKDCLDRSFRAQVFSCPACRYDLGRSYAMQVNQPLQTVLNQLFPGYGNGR

[22] = target: T4, Dual specificity protein phosphatase 6 (Rattus norvegicus, UniProt Q64346); assay: MKP-3 phosphatase inhibitors, primary screen, biochemical, rat enzyme, in vitro (AID 425)
T4 sequence (Q64346 whole entry): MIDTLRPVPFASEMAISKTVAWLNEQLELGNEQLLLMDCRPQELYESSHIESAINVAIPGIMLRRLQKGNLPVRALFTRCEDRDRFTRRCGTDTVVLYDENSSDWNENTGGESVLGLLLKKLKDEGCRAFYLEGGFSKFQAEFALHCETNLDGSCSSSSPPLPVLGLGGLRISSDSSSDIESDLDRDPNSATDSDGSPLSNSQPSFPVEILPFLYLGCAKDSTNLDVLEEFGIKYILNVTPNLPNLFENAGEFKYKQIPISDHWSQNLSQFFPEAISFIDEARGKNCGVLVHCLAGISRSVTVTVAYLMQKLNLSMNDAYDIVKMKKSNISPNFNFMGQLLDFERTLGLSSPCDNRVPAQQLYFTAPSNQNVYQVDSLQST

[23] = target: T5, Small ubiquitin-related modifier 1 (Homo sapiens, UniProt P63165); assay: inhibitors of SUMO1 partner interactions, dose response, biochemical, FRET (AID 624383); format: functional; conditions: read-out: IC50_Mean
T5 sequence (P63165 whole entry): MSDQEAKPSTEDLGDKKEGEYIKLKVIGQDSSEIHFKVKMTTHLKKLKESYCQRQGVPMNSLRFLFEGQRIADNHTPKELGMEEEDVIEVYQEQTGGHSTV

[24] = target: T6, Histone-lysine N-methyltransferase NSD2 (Homo sapiens, UniProt O96028); format: biochemical
T6 sequence (O96028 whole entry): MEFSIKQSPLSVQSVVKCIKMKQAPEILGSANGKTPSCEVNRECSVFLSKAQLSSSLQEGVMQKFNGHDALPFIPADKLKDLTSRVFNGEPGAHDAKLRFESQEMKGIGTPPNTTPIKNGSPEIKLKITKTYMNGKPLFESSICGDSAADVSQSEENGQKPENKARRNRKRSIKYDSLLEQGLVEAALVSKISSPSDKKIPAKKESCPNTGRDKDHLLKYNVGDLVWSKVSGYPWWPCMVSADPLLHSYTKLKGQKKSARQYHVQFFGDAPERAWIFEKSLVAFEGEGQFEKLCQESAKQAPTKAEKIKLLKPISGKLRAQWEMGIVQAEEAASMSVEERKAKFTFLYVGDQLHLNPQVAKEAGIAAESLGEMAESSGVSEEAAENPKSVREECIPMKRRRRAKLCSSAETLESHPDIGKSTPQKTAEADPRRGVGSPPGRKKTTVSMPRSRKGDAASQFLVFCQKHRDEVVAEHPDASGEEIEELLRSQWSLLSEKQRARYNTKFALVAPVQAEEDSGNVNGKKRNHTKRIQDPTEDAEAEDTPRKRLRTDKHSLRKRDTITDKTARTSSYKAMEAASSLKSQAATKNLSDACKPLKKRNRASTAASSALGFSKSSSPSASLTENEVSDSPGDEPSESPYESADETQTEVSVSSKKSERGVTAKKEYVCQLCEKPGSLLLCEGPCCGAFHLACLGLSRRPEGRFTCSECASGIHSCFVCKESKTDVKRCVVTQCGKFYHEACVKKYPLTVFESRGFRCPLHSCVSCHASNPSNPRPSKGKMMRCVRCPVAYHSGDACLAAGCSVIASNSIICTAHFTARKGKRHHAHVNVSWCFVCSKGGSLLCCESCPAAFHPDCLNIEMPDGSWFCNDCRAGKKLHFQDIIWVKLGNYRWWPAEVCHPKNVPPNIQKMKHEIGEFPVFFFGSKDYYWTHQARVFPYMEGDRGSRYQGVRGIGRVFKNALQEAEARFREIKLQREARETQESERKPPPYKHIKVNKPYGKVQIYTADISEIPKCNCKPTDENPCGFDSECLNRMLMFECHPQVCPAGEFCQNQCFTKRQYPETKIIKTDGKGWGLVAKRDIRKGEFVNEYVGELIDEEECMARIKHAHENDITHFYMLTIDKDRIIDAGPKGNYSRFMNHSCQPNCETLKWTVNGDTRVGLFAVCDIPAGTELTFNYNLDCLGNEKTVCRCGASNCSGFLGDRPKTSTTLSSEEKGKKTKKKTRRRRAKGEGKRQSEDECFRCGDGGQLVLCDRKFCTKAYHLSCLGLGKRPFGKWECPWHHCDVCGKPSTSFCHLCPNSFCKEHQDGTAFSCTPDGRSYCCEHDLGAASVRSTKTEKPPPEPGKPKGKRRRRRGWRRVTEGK

Caspase-6 = Caspase-6 (Homo sapiens, UniProt P55212); assay: human caspase-6 inhibitors, dose response, biochemical, VEID-R110 fluorescence, cherry-pick (AID 720632)
Caspase-6, sequence (P55212 24-179 limits assumed): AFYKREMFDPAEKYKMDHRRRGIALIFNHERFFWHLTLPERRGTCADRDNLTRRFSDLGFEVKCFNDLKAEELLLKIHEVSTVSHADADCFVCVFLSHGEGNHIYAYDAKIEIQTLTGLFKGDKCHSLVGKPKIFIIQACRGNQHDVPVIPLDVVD
Caspase-6, sequence (P55212 194-293 limits assumed): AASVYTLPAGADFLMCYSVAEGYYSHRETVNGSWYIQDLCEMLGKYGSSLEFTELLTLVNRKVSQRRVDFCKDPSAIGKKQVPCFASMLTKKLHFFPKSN

[25] = target: T5, Small ubiquitin-related modifier 1; assay: inhibitors of SUMO1 peptide binding, dose response, biochemical, fluorescence polarization, uHTS hits (AID 624382); format: functional; conditions: read-out: IC50_Mean
[26] = inhibitors of non-replicating M. tuberculosis, dose response, luciferase, dry powder (AID 651620); format: functional; conditions: Mycobacterium tuberculosis
[27] = inhibitors of non-replicating M. tuberculosis, dose response, luciferase, dry powder (AID 651619); format: functional; conditions: Mycobacterium tuberculosis

Nc1c2ccccc2nc2ccccc12 [AMINACRINE HYDROCHLORIDE]
EC50 [1]: > 60 µM (not active)
EC50 [2]: > 120 µM (not active)
AC50 [3]: < 1.92 µM (active)
EC50 (HEK293 [4]): > 2.21 µM (active)
AC50 [5]: 7.15 µM (active)
AC50 (cells [6]): 0.341 µM (active)
EC50 [7]: > 91.1 µM (inactive)
EC50 (HEK293 [8]): > 59.7 µM (inactive)
AC50 (cells [9]): 4.06 µM (active)
AC50 (cells [10]): 2.57 µM (active)
EC50 [11]: > 3.38 µM (active)
AC50 [12]: 2.76 µM (active)

Cc1nc2c(Cl)cccc2c(O)c1CN1CCCC1
IC50 [13]: > 100 µM (active)

Fc1ccc(-c2nnc(-c3ccc4ccccc4c3)o2)cc1
IC50 (Protein skinhead-1): > 100 µM (inactive)
EC50 (cells [14]): > 67.5 µM (inactive)
EC50 [15]: > 67.5 µM (inactive)

O=C(Nc1nccs1)c1cn(-c2ccccc2)nc1-c1ccncc1
IC50 [16]: > 83.3 µM (inactive)
IC50 [17]: 9.12 µM (active)
IC50 [18]: > 37.2 µM (inactive)

Cc1noc(C)c1S(=O)(=O)Nc1ccc2c(c1)C(=O)N([C@H](C)CO)C[C@@H](C)[C@H](CN(C)Cc1ccc(C(F)(F)F)cc1)OCCCC[C@@H](C)O2
AbsAC35 [19]: 39.54 µM
AC50 [20]: > 30 µM (inactive)

CCCCn1c(NC(=O)c2ccccc2)c(C#N)c2nc3ccccc3nc21
IC50 [21]: > 43.8 µM (inactive)
IC50 [22]: > 100 µM (not active)
IC50 [23]: 17.4 µM (active)
AC50 [24]: 2.61 µM (active)
AC50 (Caspase-6): 47.4 µM (active)
IC50 [25]: > 66.6 µM (inactive)

[O-][n+]1ccccc1CSc1nnc(-c2ccccc2)o1
IC90 [26]: 31 µM (active)
IC90 [27]: 31 µM (active)
